Values of other authors, collected in patent US20050020810A1, “Peptides which target tumor and endothelial cells, compositions and uses thereof” (priority 2002, published 2005).

Tests used:
[1] = test system: MatLyLu cells; conditions: rat model
[2] = test system: DU145
[3] = test system: CT26 colon cancer; conditions: in combination with 5-FU infusion

## Ac—PHSCN—NH2
[1]
  metastasis of MatLyLu cells: completely inhibits
[2]
  DU145 invasion: completely inhibits
[3]
  survival: improved survival
